Data published in publication PMC12024577, “Synthesis and Antiproliferative Effects of Grossheimin-Derived Aminoanalogues” (Biomolecules, 2025).
Where two headings read alike, the source gives them in different places.

Legend:
[1] = system: Colo205 (doxorubicin-sensitive human colon adenocarcinoma cell line); assay: MTT assay, cytotoxic effect on Colo205; type: cell-based; details: COLO 205, 24 h incubation
Procedure: (§1) The doxorubicin-sensitive Colo205 (ATCC-CCL-222) and the doxorubicin-resistant ABCB1- and LRP-expressing Colo320/MDR-LRP (ATCC-CCL-220.1) human colon adenocarcinoma cell lines were obtained from LGC Promochem in Teddington, UK. For culturing, the RPMI 1640 medium was applied and was supplemented with a 10% heat-inactivated foetal bovine serum (FBS), 2 mM L-glutamine, 1 mM Na-pyruvate and 10 mM HEPES along with nystatin and gentamicin.
(§2) The anticancer activity of the compounds was tested in 96-well flat-bottomed microtiter plates. In this assay, the two-fold serial dilutions of the compounds (concentration range: 100–0.19 μM) were made in a 100 μL RPMI 1640 medium. Next, 1 × 10^4 of human colonic adenocarcinoma cells (Colo205 or Colo320) in a 100 μL RPMI 1640 medium were added to each well except for the medium control wells. The starting concentration of the solvent DMSO in the plate was 2% v/v. The samples were incubated at 37 °C for 24 h. At the end of the incubation, 20 μL of an MTT (thiazolyl blue tetrazolium bromide) solution (from a 5 mg/mL stock solution) was pipetted to each well. After incubation at 37 °C for 4 h, 100 μL of a sodium dodecyl sulfate (SDS) solution (10% SDS in 0.01 M HCl) was pipetted to each well, and the plates were kept at 37 °C overnight. The growth of the cells was determined by measuring the optical density (OD) at 540 nm (refering to 630 nm) with a Multiscan EX ELISA reader (Thermo Labsystems, Cheshire, WA, USA). The inhibition of cell growth was calculated as IC50 values, defined as the inhibitory dose that reduces the growth of the cells exposed to the tested compounds by 50%. The IC50 values and the SD of the triplicate experiments were determined using GraphPad Prism software version 5.00 for Windows with a non-linear regression curve fit (GraphPad Software, San Diego, CA, USA; www.graphpad.com). Doxorubicin (from a 2 mg/mL stock solution, Teva Pharmaceuticals, Singapore) served as a positive control.
(§3) Since several sesquiterpene lactone-based aminoadducts exerted a significant cytotoxic action on different human cancer cell lines, the in vitro cytotoxic activities of the prepared grossheimin-based amino analogues were also tested on human colon adenocarcinoma lines, including Colo205 and Colo320 by MTT assay.

[2] = system: Colo320/MDR-LRP (doxorubicin-resistant ABCB1- and LRP-expressing human colon adenocarcinoma cell line); assay: MTT assay, cytotoxic effect on Colo320; type: cell-based; details: COLO 320, 24 h incubation
Procedure: as §1, §2, §3

CDD-19Lu fibroblasts = assay: Cytotoxic effect on fibroblasts; type: cell-based
Procedure: as §2
3. Cytotoxic effects of grossheimin-based aminoanalogues
Table S1. Cytotoxic effects of grossheimin-based aminoanalogues on colon adenocarcinoma cell lines and
CDD-19Lu fibroblasts. Doxorubicin (DOX) was applied as a positive control . n.d: not determined. Starting
concentration of grossheimin-based aminoanalogs and DOX in the assay with CDD-19Lu fibroblasts is 100 and […]

MDA-MB-231 = system: MDA-MB-231; parameters: method as in doi:10.14188/j.ajsh.2023.03.009; details: cited from earlier work
[3] = system: colorectal cancer HCT-116 cell lines; parameters: method as in doi:10.14188/j.ajsh.2023.03.009; details: cited from earlier work
[4] = system: human colon adenocarcinoma lines, including Colo205 and Colo320; assay: MTT assay, colon adenocarcinoma lines; type: cell-based; details: text summary over Colo205 and Colo320, read-out: IC50 against colon adenocarcinoma cancers / malignant cell lines
Procedure: as §1
The anticancer activity of the compounds was tested in 96-well flat-bottomed microtiter plates. In this assay, the two-fold serial dilutions of the compounds (concentration range: 100–0.19 μM) were made in a 100 μL RPMI 1640 medium. Next, 1 × 10^4 of human colonic adenocarcinoma cells (Colo205 or Colo320) in a 100 μL RPMI 1640 medium were added to each well except for the medium control wells. The starting concentration of the solvent DMSO in the plate was 2% v/v. The samples were incubated at 37 °C for 24 h. […] The growth of the cells was determined by measuring the optical density (OD) at 540 nm (refering to 630 nm) with a Multiscan EX ELISA reader (Thermo Labsystems, Cheshire, WA, USA). […] The IC50 values and the SD of the triplicate experiments were determined using GraphPad Prism software version 5.00 for Windows with a non-linear regression curve fit (GraphPad Software, San Diego, CA, USA; www.graphpad.com). […]

[5] = Fibroblast, fibroblasts, Table 2, read-out: IC50 CDD-19Lu
[6] = Homo sapiens, CCD 19Lu, fibroblasts, Table S1, starting concentration 100 (analogues) and 8.62 (DOX), read-out: IC50 CCD-19Lu

| SMILES | IC50 ([1]; Table S1) [µM] | IC50 ([2]; Table S1) [µM] | IC50 (CDD-19Lu fibroblasts; [6]) [µM] | further results |
| --- | --- | --- | --- | --- |
| C=C1C(=O)O[C@H]2[C@H]1[C@@H](O)CC(=C)[C@@H]1CC(=O)[C@@H](C)[C@H]21 [Compound 1, Grossheimin] | – | – | – | IC50 ([1]; Table 2): 23.3 ± 2.05 µM; IC50 ([2]; Table 2): 27.9 ± 2 µM; IC50 (CDD-19Lu fibroblasts; Fibroblast, read-out: IC50 CDD-19Lu): > 100 µM; IC50 (MDA-MB-231): 16.9 µM; IC50 [3]: 30.9 µM |
| C=C1C(=O)O[C@H]2[C@H]1[C@@H](OC(C)=O)CC(=C)[C@@H]1CC(=O)[C@@H](C)[C@H]21 [Compound 2] | – | – | – | IC50 ([1]; Table 2): 8.21 ± 0.51 µM; IC50 ([2]; Table 2): 9.44 ± 0.41 µM; IC50 (CDD-19Lu fibroblasts; [5]): > 100 µM; IC50 [4]: ~9 µM |
| C=C1C[C@H](O)[C@@H]2[C@H](OC(=O)[C@H]2C)[C@H]2[C@H](C)[C@H](O)C[C@@H]12 [Compound 3] | > 100 | > 100 | > 100 | – |
| C=C1C[C@H](OC(C)=O)[C@@H]2[C@H](OC(=O)[C@H]2C)[C@H]2[C@H](C)[C@@H](OC(C)=O)C[C@@H]12 [Compound 4] | > 100 | > 100 | > 100 | – |
| C=C1C[C@H](O)[C@@H]2[C@H](OC(=O)[C@H]2CNCc2ccccc2)[C@H]2[C@H](C)C(=O)C[C@@H]12 [Compound 5] | > 100 | > 100 | > 100 | – |
| C=C1C[C@H](O)[C@@H]2[C@H](OC(=O)[C@H]2CNCc2ccccc2)[C@H]2[C@H](C)[C@@H](O)C[C@@H]12 [Compound 6] | > 100 | > 100 | > 100 | – |
| C=C1C[C@H](O)[C@@H]2[C@H](OC(=O)[C@H]2CNC=O)[C@H]2[C@H](C)C(=O)C[C@@H]12 [Compound 7] | > 100 | > 100 | – | – |
| C=C1C[C@H](O)[C@@H]2[C@H](OC(=O)[C@H]2CSCc2ccccc2)[C@H]2[C@H](C)C(=O)C[C@@H]12 [Compound 8] | > 100 | > 100 | > 100 | – |
| C=C1C[C@H](O)[C@@H]2[C@H](OC(=O)[C@H]2CSCc2ccccc2)[C@H]2[C@H](C)[C@H](O)C[C@@H]12 [Compound 9] | > 100 | > 100 | > 100 | – |
| C=C1C[C@H](O)[C@@H]2[C@H](OC(=O)[C@H]2COC)[C@H]2[C@H](C)C(=O)C[C@@H]12 [Compound 10] | > 100 | > 100 | – | – |
| C=C1C[C@H](O)[C@@H]2[C@H](OC(=O)[C@H]2Cn2cnc3ccccc32)[C@H]2[C@H](C)C(=O)C[C@@H]12 [Compound 11f] | > 100 | > 100 | > 100 | – |
| C=C1C(=O)O[C@H]2[C@H]1[C@@H](O)CC(=C)[C@@H]1C[C@H](O)[C@@H](C)[C@H]21 [Compound 12] | – | – | – | IC50 ([1]; Table 2): 63.8 ± 1.32 µM; IC50 ([2]; Table 2): 53.6 ± 1.6 µM; IC50 (CDD-19Lu fibroblasts; [5]): > 100 µM |
| C=C1C(=O)O[C@H]2[C@H]1[C@@H](OC(C)=O)CC(=C)[C@@H]1C[C@H](OC(C)=O)[C@@H](C)[C@H]21 [Compound 13] | – | – | – | IC50 ([1]; Table 2): 8.21 ± 0.51 µM; IC50 ([2]; Table 2): 6.98 ± 0.29 µM; IC50 (CDD-19Lu fibroblasts; [5]): 29.1 ± 0.46 µM; IC50 [4]: ~8 µM |
| C=C1C[C@H](O)[C@@H]2[C@H](OC(=O)[C@H]2CNC=O)[C@H]2[C@H](C)[C@@H](O)C[C@@H]12 [Compound 14] | > 100 | > 100 | – | – |
| C=C1C[C@H](O)[C@@H]2[C@H](OC(=O)[C@H]2COC)[C@H]2[C@H](C)[C@@H](O)C[C@@H]12 [Compound 15] | > 100 | > 100 | – | – |
| C=C1C[C@H](O)[C@@H]2[C@H](OC(=O)[C@H]2Cn2cnc3ccccc32)[C@H]2[C@H](C)[C@@H](O)C[C@@H]12 [Compound 16a] | > 100 | > 100 | > 100 | – |
| COc1cccc2c1C(=O)c1c(O)c3c(c(O)c1C2=O)C[C@@](O)(C(=O)CO)C[C@@H]3O[C@H]1C[C@H](N)[C@H](O)[C@H](C)O1 [DOX, Doxorubicin, reference compound] | – | – | – | IC50 ([1]; Table 2): 3.21 ± 0.03 µM; IC50 ([2]; Table 2): 4.36 ± 0.08 µM; IC50 (CDD-19Lu fibroblasts; [5]): > 8.62 µM |
